Values joined by “and” are separate entries in the source; they are usually repeats but may differ in a detail not shown here. Identical values can stand only once. Inconclusive results and toxic doses are left out.
Tested on: BDF1 mice, P388 leukemia ip, median survival T/C
Test: NCI In Vivo Anticancer Drug Screen. Data for tumor model P388 Leukemia (intraperitoneal) in B6D2F1 (BDF1) mice
Settings: endpoint: median survival time, higher = longer survival
How it was run: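 Mice carrying the transplantable tumour receive compound or vehicle. Survival is followed in each arm, and the treated measure is divided by the vehicle measure.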

[1] = dose: 50.0 mg/kg/injection, schedule: Q01DX009 (ip), vehicle: saline with Tween-80
[2] = dose: 100.0 mg/kg/injection, schedule: Q01DX009 (ip), vehicle: saline with Tween-80
[3] = dose: 200.0 mg/kg/injection, schedule: Q01DX009 (ip), vehicle: saline with Tween-80
[4] = dose: 100.0 mg/kg/injection, schedule: Q04DX003 (ip), vehicle: Klucel (hydroxypropylcellulose) (HPC)
[5] = dose: 200.0 mg/kg/injection, schedule: Q04DX003 (ip), vehicle: Klucel (hydroxypropylcellulose) (HPC)
[6] = dose: 400.0 mg/kg/injection, schedule: Q04DX003 (ip), vehicle: Klucel (hydroxypropylcellulose) (HPC)
[7] = dose: 100.0 mg/kg/injection, schedule: Q04DX003 (ip), vehicle: saline with Tween-80
[8] = dose: 200.0 mg/kg/injection, schedule: Q04DX003 (ip), vehicle: saline with Tween-80
[9] = dose: 50.0 mg/kg/injection, schedule: Q01DX009 (ip), vehicle: Klucel (hydroxypropylcellulose) (HPC)
[10] = dose: 12.5 mg/kg/injection, schedule: Q01DX009 (ip), vehicle: saline with Tween-80
[11] = dose: 25.0 mg/kg/injection, schedule: Q01DX009 (ip), vehicle: saline with Tween-80

For `NC(=O)n1cccn1`, the T/C (dose: 30.0 mg/kg/injection, schedule: Q01DX010 (ip), vehicle: saline) was 100 % of control, the T/C (dose: 50.0 mg/kg/injection, schedule: Q01DX010 (ip), vehicle: other) was 104 % of control and the T/C (dose: 60.0 mg/kg/injection, schedule: Q01DX010 (ip), vehicle: saline) was 100 % of control. For the same molecule, the T/C (dose: 100.0 mg/kg/injection, schedule: Q01DX010 (ip), vehicle: other) was 100 % of control, the T/C (dose: 120.0 mg/kg/injection, schedule: Q01DX010 (ip), vehicle: saline) was 109 % of control and the T/C (dose: 240.0 mg/kg/injection, schedule: Q01DX010 (ip), vehicle: saline) was 122 % of control.

For `CC(=O)Oc1c(Br)c(-c2cc([N+](=O)[O-])c(C)c([N+](=O)[O-])c2C)c(OC(C)=O)c(Br)c1-c1cc([N+](=O)[O-])c(C)c([N+](=O)[O-])c1C`, the T/C (dose: 50.0 mg/kg/injection, schedule: Q01DX001 (ip), vehicle: Klucel (hydroxypropylcellulose) (HPC)) was 112 % of control, the T/C (dose: 100.0 mg/kg/injection, schedule: Q01DX001 (ip), vehicle: Klucel (hydroxypropylcellulose) (HPC)) was 115 % of control and the T/C (dose: 200.0 mg/kg/injection, schedule: Q01DX001 (ip), vehicle: Klucel (hydroxypropylcellulose) (HPC)) was 115 % of control. The T/C (dose: 400.0 mg/kg/injection, schedule: Q01DX001 (ip), vehicle: Klucel (hydroxypropylcellulose) (HPC)) was 106 % of control.

With `CC(C(=O)O)C(=O)O.[NH-]C1CCCCC1[NH-].[Pt+2]` the T/C (dose: 50.0 mg/kg/injection, schedule: Q04DX002 (ip), vehicle: Klucel (hydroxypropylcellulose) (HPC)) was 150 % of control and the T/C (dose: 200.0 mg/kg/injection, schedule: Q04DX002 (ip), vehicle: Klucel (hydroxypropylcellulose) (HPC)) was 203 % of control.

`O=C(NC1CCCCC1)N(C(=O)C(F)(F)F)C1CCCCC1` was tested, and the T/C [1] was 97 % of control, the T/C [2] was 93 % of control and the T/C [3] was 93 % of control.

With `c1ccc(C2SCSCS2)cc1` the T/C [4] was 100 % of control, the T/C [5] was 95 % of control and the T/C [6] was 95 % of control.

For `CC(C)CSc1nc(N)nc2nc[nH]c12`, the T/C [7] was 109 % of control and the T/C [8] was 109 % of control.

For `CN1C(=O)CN=C(c2ccc[nH]2)c2cc(Cl)ccc21` (tested in a mixture with another compound), the T/C [9] was 104 % of control, the T/C (dose: 100.0 mg/kg/injection, schedule: Q01DX009 (ip), vehicle: Klucel (hydroxypropylcellulose) (HPC)) was 109 % of control and the T/C [4] was 100 % of control. The T/C (dose: 200.0 mg/kg/injection, schedule: Q01DX009 (ip), vehicle: Klucel (hydroxypropylcellulose) (HPC)) was 100 % of control, the T/C [5] was 104 % of control and the T/C [6] was 90 % of control.

For `Cn1c(C(Cl)Cl)nc2ccccc2c1=O`, the T/C (dose: 12.5 mg/kg/injection, schedule: Q01DX009 (ip), vehicle: Klucel (hydroxypropylcellulose) (HPC)) was 100 % of control, the T/C (dose: 25.0 mg/kg/injection, schedule: Q01DX009 (ip), vehicle: Klucel (hydroxypropylcellulose) (HPC)) was 100 % of control and the T/C [9] was 95 % of control. The T/C (dose: 75.0 mg/kg/injection, schedule: Q01DX009 (ip), vehicle: Klucel (hydroxypropylcellulose) (HPC)) was 100 % of control, the T/C (dose: 115.0 mg/kg/injection, schedule: Q01DX009 (ip), vehicle: Klucel (hydroxypropylcellulose) (HPC)) was 114 % of control and the T/C (dose: 170.0 mg/kg/injection, schedule: Q01DX009 (ip), vehicle: Klucel (hydroxypropylcellulose) (HPC)) was 95 % of control.

For `O=[N+]([O-])c1ccc(N2CCN(c3ccccc3)CC2)c2c1no[n+]2[O-]`, the T/C (dose: 75.0 mg/kg/injection, schedule: Q04DX003 (ip), vehicle: saline with Tween-80) was 108 % of control and the T/C (dose: 150.0 mg/kg/injection, schedule: Q04DX003 (ip), vehicle: saline with Tween-80) was 111 % of control.

In the case of `CCOC(=O)CC1NCCC2C1CCC(OC)C2OC` (centres undefined), the T/C [10] is reported as 95 % of control, the T/C [11] is reported as 100 % of control and the T/C [1] is reported as 100 % of control. For the same molecule, the T/C (dose: 50.0 mg/kg/injection, schedule: Q04DX003 (ip), vehicle: other) was 110 % of control, the T/C (dose: 100.0 mg/kg/injection, schedule: Q01DX009 (ip), vehicle: other) was 105 % of control and the T/C (dose: 100.0 mg/kg/injection, schedule: Q04DX003 (ip), vehicle: other) was 100 % of control. For the same molecule, the T/C (dose: 200.0 mg/kg/injection, schedule: Q01DX009 (ip), vehicle: other) was 110 % of control and the T/C (dose: 200.0 mg/kg/injection, schedule: Q04DX003 (ip), vehicle: other) was 100 % of control.

`COc1ccc(C(CC(C)=O)c2c(O)c3ccccc3oc2=O)cc1OC` (centres undefined) was tested, and the T/C (dose: 3.12 mg/kg/injection, schedule: Q04DX003 (ip), vehicle: water) was 98 % of control, the T/C (dose: 6.25 mg/kg/injection, schedule: Q01DX009 (ip), vehicle: water) was 100 % of control and the T/C (dose: 6.25 mg/kg/injection, schedule: Q04DX003 (ip), vehicle: water) was 101 % of control. For the same molecule, the T/C (dose: 12.5 mg/kg/injection, schedule: Q01DX009 (ip), vehicle: water) was 100 % of control, the T/C (dose: 12.5 mg/kg/injection, schedule: Q04DX003 (ip), vehicle: water) was 100 % of control and the T/C (dose: 25.0 mg/kg/injection, schedule: Q04DX003 (ip), vehicle: water) was 105 % of control. For the same molecule, the T/C (dose: 50.0 mg/kg/injection, schedule: Q04DX003 (ip), vehicle: water) was 100 % of control, the T/C (dose: 100.0 mg/kg/injection, schedule: Q04DX003 (ip), vehicle: water) was 100 % of control and 102 % of control and the T/C (dose: 200.0 mg/kg/injection, schedule: Q04DX003 (ip), vehicle: water) was 101 % of control. The T/C (dose: 400.0 mg/kg/injection, schedule: Q04DX003 (ip), vehicle: water) was 90 % of control.

In the case of `O=NN(CCCl)C(=O)NC1C2CC3CC(C2)CC1C3` (centres undefined), the T/C (dose: 5.56 mg/kg/injection, schedule: Q01DX009 (ip), vehicle: other) is reported as 207 % of control, the T/C (dose: 8.3 mg/kg/injection, schedule: Q04DX003 (ip), vehicle: other) is reported as 159 % of control and the T/C (dose: 8.33 mg/kg/injection, schedule: Q01DX009 (ip), vehicle: other) is reported as 287 % of control. The T/C (dose: 12.5 mg/kg/injection, schedule: Q01DX009 (ip), vehicle: other) was 281 % of control and 305 % of control, the T/C (dose: 12.5 mg/kg/injection, schedule: Q04DX003 (ip), vehicle: other) was 263 % of control and the T/C (dose: 18.7 mg/kg/injection, schedule: Q01DX009 (ip), vehicle: other) was 188 % of control. For the same molecule, the T/C (dose: 18.7 mg/kg/injection, schedule: Q04DX003 (ip), vehicle: other) was 222 % of control, the T/C (dose: 25.0 mg/kg/injection, schedule: Q01DX009 (ip), vehicle: other) was 231 % of control and the T/C (dose: 50.0 mg/kg/injection, schedule: Q01DX009 (ip), vehicle: other) was 100 % of control.

`CCn1cnc2c(SC3CCCC3)ncnc21` was tested, and the T/C (dose: 100.0 mg/kg/injection, schedule: Q04DX003 (ip), vehicle: saline sonified) was 100 % of control, the T/C (dose: 200.0 mg/kg/injection, schedule: Q04DX003 (ip), vehicle: saline sonified) was 100 % of control and the T/C (dose: 400.0 mg/kg/injection, schedule: Q04DX003 (ip), vehicle: saline sonified) was 100 % of control.

With `C#CCOCCBr` the T/C (dose: 22.0 mg/kg/injection, schedule: Q01DX009 (ip), vehicle: saline) was 122 % of control.

`COC(=O)c1ccc(Cn2ccc(=O)n(Cc3ccc(C(=O)OC)cc3)c2=O)cc1` was tested, and the T/C [7] was 100 % of control, the T/C [8] was 100 % of control and the T/C (dose: 400.0 mg/kg/injection, schedule: Q04DX003 (ip), vehicle: saline with Tween-80) was 100 % of control.

In the case of `Cc1cc(-c2ccccc2)[n+](C)n1C`, the T/C [10] is reported as 98 % of control and the T/C [11] is reported as 118 % of control.

For `CC/C(C)=N/Nc1nncn2c1cc1ccccc12`, the T/C [1] was 94 % of control, the T/C [2] was 100 % of control and the T/C [3] was 97 % of control.

With `CN(C)C(CC(=O)c1ccccc1)C(=O)O` (centres undefined) the T/C (dose: 50.0 mg/kg/injection, schedule: Q04DX003 (ip), vehicle: saline sonified) was 104 % of control.

With `CC(=O)OC1(C)CC(C)(C)N=N1` (centres undefined) the T/C (dose: 25.0 mg/kg/injection, schedule: Q01DX005 (ip), vehicle: water) was 107 % of control, the T/C (dose: 50.0 mg/kg/injection, schedule: Q01DX005 (ip), vehicle: water) was 105 % of control and the T/C (dose: 100.0 mg/kg/injection, schedule: Q01DX005 (ip), vehicle: water) was 105 % of control. For the same molecule, the T/C (dose: 200.0 mg/kg/injection, schedule: Q01DX005 (ip), vehicle: water) was 114 % of control and the T/C (dose: 400.0 mg/kg/injection, schedule: Q01DX005 (ip), vehicle: water) was 107 % of control.
